# Laboratory results as given in paper PMC6390583 (BMC rheumatology, 2018).
# Key:
# [1] = tested on: CD3-/CD16+/CD56+ NK cells; assay: Circulating NK cell analysis after 14 days dosing; assay type: in vivo, rat
# Experimental: Blood was collected and stained using BD MultiTest IMK kit (BD Biosciences, San Jose, CA) per manufacturer’s instructions. NK cell numbers were determined by using FlowJo analysis software (FlowJo, LLC, Ashland, OR) and by examining the CD3^−/CD16^+/CD56^+ population. The number of cells/μL was calculated by using the following equation: (# events in cell population/# of events in absolute bead count region) × (# beads per test/test volume), with the value beads per test indicated on the BD Trucount tube label.
# reticulocyte deployment = assay: Epo induced reticulocyte deployment assay; assay type: in vivo; conditions: rat, Epo challenge, highest concentration tested
# Experimental: Naïve male Lewis rats were injected intravenously with either PBS or 1000 IU of epoetin α (Procrit®, Janssen Products, LP, Horsham, PA) for two consecutive days. Reticulocytes were measured on day 4 by flow cytometry using thiozole orange as a dye as previously described.
# IL-7 driven pSTAT5 = assay: Clinical ex vivo IL-7 stimulation of whole blood, pSTAT5; assay type: in vivo; conditions: healthy volunteers, 5 mg tofacitinib, 1 h post dose
# Experimental: (§1) Recombinant human IL-6 (400 ng/ml), or IL-7 (400 ng/ml), (R&D Systems, Minneapolis, MN) was added to blood and incubated for 10 min at 37°C. Surface antibodies were added (CD14-APC, CD3-fluorescein isothiocyanate [FITC]; BD Biosciences, San Jose, CA) and incubated on ice for an additional 20 min. Samples were lysed (Lyse/Fix, BD Biosciences, San Jose, CA) and incubated for 10 min at 37°C. Samples were washed and stored at − 70°C. For intracellular staining, samples were thawed, washed, and resuspended in BD Perm buffer III (BD Biosciences, San Jose, CA) on ice for 30 min. Samples were washed and stained with pSTAT5-PE or pSTAT3-PE (BD Biosciences, San Jose, CA) for 60 min at room temperature and then analyzed immediately on a FACSCalibur. Geometric means were determined using FlowJo analysis software.
# IL-6 induced pSTAT3 = assay: Clinical ex vivo IL-6 stimulation of whole blood, pSTAT3; assay type: in vivo, healthy volunteers; conditions: healthy volunteers, 5 mg of tofacitinib, 1 h post dose
# Experimental: as §1
# [2] = tested on: adjuvant induced arthritis; assay: Rat adjuvant-induced arthritis (AIA) model; assay type: in vivo
smiles,measurement,setting,value
"C[C@@H]1CCN(C(=O)CC#N)C[C@@H]1N(C)c1ncnc2[nH]ccc12 [tofacitinib, reference compound]",AUC60 for decrease of circulating NK cell numbers,[1]; naive rats dosed orally for 14 days,1230 ng·h/mL
same,Decrease in circulating NK cells at AUC60,"[1]; rat, at AUC60 of paw swelling",70%
same,Maximal inhibition of reticulocyte deployment,reticulocyte deployment,> 40%
same,Inhibition of IL-7 driven pSTAT5,IL-7 driven pSTAT5,~ 70%
same,Inhibition of IL-6 induced pSTAT3,IL-6 induced pSTAT3,~ 50%
same,Reduction in paw swelling at clinical AUC exposures,[2]; exposure associated with 10 mg BID of tofacitinib,~ 60%
same,"AUC60, AUC0-12 drug concentration necessary to achieve 60% inhibition of paw swelling",[2]; oral BID,1205 ng·h/mL
same,Effect on paw swelling,"[2]; oral, dosed from day 7",dose-responsive efficacy
